From patent US20080255168A1, “METHODS FOR ADMINISTERING DPD INHIBITORS IN COMBINATION WITH 5-FU AND 5-FU PRODRUGS” (ADHEREX TECHNOLOGIES, INC., priority 2004, published 2008)
Like-named read-outs stand apart in the source and are kept apart here. One block for each compound: values may come before it.

Tests used:
[1] = test system: Ward carcinoma tumors; assay: Antitumor activity in rats bearing Ward carcinoma tumors; type: in vivo; settings: for Ward carcinoma tumor response: once per week for three weeks
Experimental: Rats were implanted with Ward carcinoma tumors and were treated with one of the following regimens after their tumors grew to 3,000 mg in weight as previously described (Cao et al., Cancer Res 90:1507-1510, 1993). Rats bearing 3,000 mg of tumor mass were dosed at Day 0, Day 7, and Day 14 with the following treatments.
Group A rats received no treatment. Group B rats were intraperitoneally (ip) dosed with 1 mg/kg eniluracil (time (t)=0) followed by intravenous (iv) 5 mg/kg 5-FU at t=60. Group C rats were dosed ip with 1 mg/kg eniluracil (t=0) followed by 25 mg/kg eniluracil ip at t=55 minutes and by 5 mg/kg 5-FU iv at t=60 minutes. Animals were dosed once per week for three weeks. Eniluracil was also dosed ip at 1 mg/kg to rats in Groups B & C on Days 2 and 3 of each weekly treatment. The treatment for Group C mimicked the clinical trials where high levels of eniluracil were present when 5-FU was dosed.

[2] = cited from earlier work
[3] = test system: HEK 293 cells; assay: Cytotoxicity of 5-FU, MTS proliferation assay; type: cell-based; settings: Homo sapiens
Experimental: (§1) HEK 293 cells were initially treated with eniluracil (10 μM) for 1 hour. After a washout period ranging from 4-48 hours, cells were treated with [6-^14C]-5-FU (66 μM) for 2 hours at 37 degrees C. Controls were HEK 293 cells treated for 2 hours either with [6-^14C]-5-FU (66 μM) alone, or with eniluracil (10 μM) and [6-^14C]-5-FU (66 μM) co-administered together without preincubation. Reverse phase HPLC with radioactivity detection was utilized to quantify [6-^14C]-5-FU catabolites/anabolites present in cell lysates. In a separate set of experiments cytotoxicity of 5-FU at different eniluracil dose schedules was examined. HEK 293 cells were treated with a range of 5-FU concentrations for 72 hours at 37 degrees C. following 1 hour eniluracil (5 μM) preincubation, without eniluracil, or with eniluracil (5 μM) co-administered without preincubation. Cytotoxicity was assessed by the MTS proliferation assay and the EC50 values for 5-FU calculated.

[4] = Plasma uridine levels after eniluracil, LC-MS; type: in vivo; settings: mice, eniluracil 2, 25 and 100 mg/kg, FIG. 2
Experimental: While eniluracil inhibition is known to cause an increase in uracil levels due to DPD inhibition, inhibitory effects on other enzymes that anabolize fluoropyrimidines would be expected to quantitatively alter the levels of other anabolites, such as uridine. Eniluracil was administered to mice at 2 mg/kg, 25 mg/kg and 100 mg/kg. Plasma samples were taken at 0 minutes, 15 minutes, 30 minutes, 60 minutes, 2 hours, 24 hours and 48 hours. Uridine levels were determined by LC-MS technology using known techniques and standards were used to validate the assay.

[5] = target: T1, DPD (Homo sapiens, UniProt Q12882); settings: cancer patients, cited from earlier work
T1 construct: 24 hours after one dose of eniluracil, the level of DPD was only 3% of the predose level; host or cells: cancer patients
T1 sequence (Q12882 4-1025): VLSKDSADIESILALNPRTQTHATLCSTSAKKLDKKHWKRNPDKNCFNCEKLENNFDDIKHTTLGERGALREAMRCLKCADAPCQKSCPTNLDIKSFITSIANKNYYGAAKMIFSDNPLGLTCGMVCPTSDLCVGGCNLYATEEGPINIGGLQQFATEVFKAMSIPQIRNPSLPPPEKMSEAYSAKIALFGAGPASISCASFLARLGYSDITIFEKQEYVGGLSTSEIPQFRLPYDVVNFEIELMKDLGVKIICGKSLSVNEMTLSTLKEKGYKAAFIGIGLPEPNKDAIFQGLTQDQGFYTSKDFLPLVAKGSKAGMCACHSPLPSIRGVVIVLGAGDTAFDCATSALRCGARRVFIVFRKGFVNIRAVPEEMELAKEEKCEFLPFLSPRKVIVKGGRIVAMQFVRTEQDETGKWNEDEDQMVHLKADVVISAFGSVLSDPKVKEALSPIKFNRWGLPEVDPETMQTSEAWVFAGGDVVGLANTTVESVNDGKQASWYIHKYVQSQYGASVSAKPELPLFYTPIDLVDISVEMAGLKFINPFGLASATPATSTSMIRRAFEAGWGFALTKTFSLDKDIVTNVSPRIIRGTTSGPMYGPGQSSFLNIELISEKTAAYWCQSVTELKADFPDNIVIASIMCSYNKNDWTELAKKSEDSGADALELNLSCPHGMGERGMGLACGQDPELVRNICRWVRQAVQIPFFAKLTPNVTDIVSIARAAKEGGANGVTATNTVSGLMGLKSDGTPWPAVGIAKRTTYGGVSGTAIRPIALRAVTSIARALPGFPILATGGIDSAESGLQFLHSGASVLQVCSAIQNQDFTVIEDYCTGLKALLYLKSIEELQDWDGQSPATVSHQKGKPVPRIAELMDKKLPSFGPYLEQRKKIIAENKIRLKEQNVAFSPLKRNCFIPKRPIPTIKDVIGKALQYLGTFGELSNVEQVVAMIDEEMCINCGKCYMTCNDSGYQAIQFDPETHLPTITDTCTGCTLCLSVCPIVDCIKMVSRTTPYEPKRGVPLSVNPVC

[6] = cited from earlier work; remark: listed apart in the source
[7] = test system: EpiDerm™ skin model (normal, human-derived epidermal keratinocytes); assay: EpiDerm skin model dermal irritation, MTT conversion assay (ET50); type: cell-based
Excerpt: The EpiDerm™ skin model system (MatTek) was used to assess the potential dermal irritation of eniluracil alone or its formulation. This system consists of normal, human-derived epidermal keratinocytes (NHEK) which have been cultured to form a multilayered, highly differentiated model of the human epidermis. […] The EpiDerm™ system is mitotically and metabolically active. Markers of mature epidermis-specific differentiation such as pro-filaggrin, the K1/K10 cytokeratin pair, involucrin, and type I epidermal transglutaminase have been localized in the model. […] The duration of exposure resulting in a 50% decrease in MTT conversion in test article-treated EpiDerm™ cultures, relative to control cultures, was determined (ET50). Eniluracil was prepared and administered to the test system at the three final concentrations of 1000 μM, 500 μM, and 100 μM, and tested at three exposure times of 8, 20, and 24 hours. The DMSO solvent control was tested at exposure times of 8 and 24 hours. The negative control was tested at exposure times of 4 and 24 hours, and the positive control was tested at exposure times of 4 and 8 hours. The results of the trial, presented in Table 1, confirmed that the three doses of eniluracil were well-tolerated by the EpiDerm™ skin model at topical exposures of up to 24 hours. […] Hydrochloric acid in an amount equivalent to the sodium hydroxide was added to neutralize the ointment. The exposure time control was also exposed in duplicate for 4 and 24 hours. Table 2 below summarizes the ET50 results of the EpiDerm™ assay for the test articles and the positive control, using the negative control results to determine the relative viability.

[8] = test system: HEK 293 cells; assay: [6-14C]-FUMP anabolite formation from [6-14C]-5-FU in HEK 293 cells, reverse phase HPLC; type: cell-based; settings: eniluracil 10 μM 1 hour, 48 hour washout, then [6-14C]-5-FU 66 μM 2 hours
Experimental: as §1

SMILES: O=c1[nH]cc(F)c(=O)[nH]1 [5-FU, 5-Fluorouracil]
Ward carcinoma tumor response ([1]; Group B: eniluracil 1 mg/kg ip t=0, 5-FU 5 mg/kg iv t=60 min): rapidly eliminated
Ward carcinoma tumor response ([1]; Group C: eniluracil 1 mg/kg ip t=0, eniluracil 25 mg/kg ip t=55 min, 5-FU 5 mg/kg iv t=60 min): decreased only slightly in size
Half-life of 5-FU ([2]; cancer patients, after 3.7 mg/m^2 eniluracil): 4.5 h
Elimination half-life of 5-FU ([2]; cancer patients, after one dose of eniluracil): 3.5 h
Elimination half-life of 5-FU ([2]; cancer patients, without eniluracil): about 10 minutes
EC50 ([3]; HEK293, 72 h, read-out: EC50 of 5-FU (mean ±SE), 72 hours, 5-FU treatment alone): 311 nM
EC50 ([3]; HEK293, read-out: EC50 of 5-FU (mean ±SE), 72 hours, after 1 hour eniluracil (5 μM) pre-treatment): 264 nM
EC50 ([3]; HEK293, read-out: EC50 of 5-FU (mean ±SE), 72 hours, eniluracil (5 μM) co-administered without preincubation): 308 nM

Increase in [6-14C]-FUMP formation versus [6-14C]-5-FU treatment alone [8]: 70%
Increase in [6-14C]-FUMP formation versus eniluracil and [6-14C]-5-FU co-administration [8]: 41%
SMILES: C#Cc1c[nH]c(=O)[nH]c1=O [eniluracil, 5-Ethynyluracil]
Effect of excess eniluracil on antitumor activity of 5-FU ([1]; Group C (extra 25 mg/kg eniluracil at 55 min) versus Group B): greatly diminished
Elimination half-life for eniluracil ([2]; humans): about 3.5 hours
Plasma uridine levels [4]: increase in uridine levels
Level of DPD, % of the predose level ([5]; 24 hours after one dose of eniluracil): 3%
DPD eliminated ([5]; dose of 0.74 mg/m^2 (about 1 mg total), for prolonged periods): greater than 90%
5-FU-associated hand-foot syndrome toxicity ([6]; Phase II and Phase III trials, oral eniluracil with 5-FU): abrogated
Toxicity in Phase I clinical trials ([6]; cancer patients, eniluracil eliminating DPD activity): without causing toxicity
Antitumor activity versus standard 5-FU regimen without eniluracil ([6]; two Phase III studies, 28-day eniluracil and 5-FU regimen, colorectal cancer): less antitumor activity
Tolerability in the EpiDerm skin model ([7]; 1000, 500 and 100 μM, topical exposures of up to 24 hours): well-tolerated
ET50 ([7]; eniluracil 100 uM): >24 h
ET50 ([7]; eniluracil 500 uM): >24 h
ET50 ([7]; eniluracil 1000 uM): >24 h
